Laboratory results published in PubChem BioAssay (NCI).
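Protocol summary: plate cells (96-well), add compound at 5 concentrations, incubate 48 h, interpolate endpoints linearly. GI50 = concentration required for 50% inhibition of growth. The concentration for full growth arrest is given as TGI.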

Key:
Experiment in all cases: growth of human tumour cells (NCI), 48 h
SK-MEL-5 melanoma = tested on: SK-MEL-5 melanoma
NCI/ADR-RES ovarian = tested on: NCI/ADR-RES ovarian
RXF 393 renal = tested on: RXF 393 renal
OVCAR-4 ovarian = tested on: OVCAR-4 ovarian
MDA-MB-435 = tested on: MDA-MB-435
U251 CNS = tested on: U251 CNS
HL-60(TB) leukemia = tested on: HL-60(TB) leukemia
OVCAR-5 ovarian = tested on: OVCAR-5 ovarian
HT29 colon = tested on: HT29 colon
SF-295 CNS = tested on: SF-295 CNS
TK-10 renal = tested on: TK-10 renal
OVCAR-8 ovarian = tested on: OVCAR-8 ovarian
SF-539 CNS = tested on: SF-539 CNS
T-47D breast = tested on: T-47D breast
IGROV1 ovarian = tested on: IGROV1 ovarian
CAKI-1 renal = tested on: CAKI-1 renal
HS 578T breast = tested on: HS 578T breast
KM12 colon = tested on: KM12 colon
CCRF-CEM leukemia = tested on: CCRF-CEM leukemia
PC-3 prostate = tested on: PC-3 prostate
SNB-75 CNS = tested on: SNB-75 CNS
A549 NSCLC = tested on: A549 NSCLC
OVCAR-3 ovarian = tested on: OVCAR-3 ovarian
UO-31 renal = tested on: UO-31 renal
MOLT-4 leukemia = tested on: MOLT-4 leukemia
RPMI-8226 leukemia = tested on: RPMI-8226 leukemia
SK-OV-3 ovarian = tested on: SK-OV-3 ovarian
HCC-2998 colon = tested on: HCC-2998 colon
NCI-H460 lung = tested on: NCI-H460 lung
SN12C renal = tested on: SN12C renal
M14 melanoma = tested on: M14 melanoma
EKVX NSCLC = tested on: EKVX NSCLC
K-562 leukemia = tested on: K-562 leukemia
A498 renal = tested on: A498 renal
LOX IMVI melanoma = tested on: LOX IMVI melanoma
HCT-116 colon = tested on: HCT-116 colon
MDA-MB-231 breast = tested on: MDA-MB-231 breast
786-0 renal = tested on: 786-0 renal
NCI-H23 lung = tested on: NCI-H23 lung
SK-MEL-28 melanoma = tested on: SK-MEL-28 melanoma
SR leukemia = tested on: SR leukemia
SF-268 CNS = tested on: SF-268 CNS
MALME-3M melanoma = tested on: MALME-3M melanoma
NCI-H522 lung = tested on: NCI-H522 lung
COLO 205 colon = tested on: COLO 205 colon
DU-145 prostate = tested on: DU-145 prostate
HOP-92 NSCLC = tested on: HOP-92 NSCLC
UACC-62 melanoma = tested on: UACC-62 melanoma
NCI-H226 lung = tested on: NCI-H226 lung
SW-620 colon = tested on: SW-620 colon
UACC-257 melanoma = tested on: UACC-257 melanoma
SK-MEL-2 melanoma = tested on: SK-MEL-2 melanoma
HCT-15 colon = tested on: HCT-15 colon
HOP-62 NSCLC = tested on: HOP-62 NSCLC
ACHN renal = tested on: ACHN renal
SNB-19 CNS = tested on: SNB-19 CNS
MCF7 breast = tested on: MCF7 breast

## CCOC(=O)c1c(Cl)c2c(n1Cc1cccc(OC)c1)-c1oncc1CC2
SK-MEL-5 melanoma
  GI50: 1.24 µM
  TGI: 10.5 µM
NCI/ADR-RES ovarian
  GI50: 0.497 µM
  TGI: 6.91 µM
RXF 393 renal
  GI50: 2.87 µM
  TGI: 40.4 µM
OVCAR-4 ovarian
  GI50: 6.46 µM
  TGI: > 100 µM
MDA-MB-435
  GI50: 0.298 µM
  TGI: 15.6 µM
U251 CNS
  GI50: 4.75 µM
  TGI: > 100 µM
HL-60(TB) leukemia
  GI50: 0.557 µM
  TGI: 5.81 µM
OVCAR-5 ovarian
  GI50: 10.1 µM
  TGI: > 100 µM
HT29 colon
  GI50: 0.799 µM
  TGI: 15.1 µM
SF-295 CNS
  GI50: 0.658 µM
  TGI: 15.9 µM
TK-10 renal
  GI50: 6.59 µM
  TGI: > 100 µM
OVCAR-8 ovarian
  GI50: 7.27 µM
  TGI: > 100 µM
SF-539 CNS
  GI50: 2.12 µM
  TGI: 10.6 µM
T-47D breast
  GI50: 4.41 µM
  TGI: > 100 µM
IGROV1 ovarian
  GI50: 1.23 µM
  TGI: 59 µM
CAKI-1 renal
  GI50: 1.85 µM
  TGI: > 100 µM
HS 578T breast
  GI50: 1.21 µM
  TGI: 9.45 µM
KM12 colon
  GI50: 0.732 µM
  TGI: 77.9 µM
CCRF-CEM leukemia
  GI50: 2.07 µM
  TGI: 84 µM
PC-3 prostate
  GI50: 5.4 µM
  TGI: > 100 µM
SNB-75 CNS
  GI50: 1.61 µM
  TGI: 5.35 µM
A549 NSCLC
  GI50: 5.16 µM
  TGI: > 100 µM
OVCAR-3 ovarian
  GI50: 0.383 µM
  TGI: 2.92 µM
UO-31 renal
  GI50: 3.37 µM
  TGI: 78.6 µM
MOLT-4 leukemia
  GI50: 3.48 µM
  TGI: > 100 µM
RPMI-8226 leukemia
  GI50: 5.15 µM
  TGI: > 100 µM
SK-OV-3 ovarian
  GI50: 3.36 µM
  TGI: > 100 µM
HCC-2998 colon
  GI50: 3.01 µM
  TGI: 19.6 µM
NCI-H460 lung
  GI50: 0.659 µM
  TGI: 13.7 µM
SN12C renal
  GI50: 6.04 µM
  TGI: > 100 µM
M14 melanoma
  GI50: 2.07 µM
  TGI: > 100 µM
EKVX NSCLC
  GI50: 3.05 µM
  TGI: > 100 µM
K-562 leukemia
  GI50: 0.397 µM
  TGI: > 100 µM
A498 renal
  GI50: 0.382 µM
  TGI: 5.69 µM
LOX IMVI melanoma
  GI50: 2.51 µM
  TGI: > 100 µM
HCT-116 colon
  GI50: 0.904 µM
  TGI: 24.2 µM
MDA-MB-231 breast
  GI50: 4.61 µM
  TGI: > 100 µM
786-0 renal
  GI50: 4.5 µM
  TGI: 52.7 µM
NCI-H23 lung
  GI50: 3.55 µM
  TGI: 60.6 µM
SK-MEL-28 melanoma
  GI50: 4.89 µM
  TGI: > 100 µM
SR leukemia
  GI50: 0.444 µM
  TGI: 24.1 µM
SF-268 CNS
  GI50: 9.31 µM
  TGI: > 100 µM
MALME-3M melanoma
  GI50: 0.646 µM
  TGI: 96.2 µM
NCI-H522 lung
  GI50: 0.351 µM
  TGI: 6.73 µM
COLO 205 colon
  GI50: 1.62 µM
  TGI: 11.3 µM
DU-145 prostate
  GI50: 2.42 µM
  TGI: 27 µM
HOP-92 NSCLC
  GI50: 9.24 µM
  TGI: > 100 µM
UACC-62 melanoma
  GI50: 0.608 µM
  TGI: 29.3 µM
NCI-H226 lung
  GI50: 6.82 µM
  TGI: > 100 µM
SW-620 colon
  GI50: 0.773 µM
  TGI: > 100 µM
UACC-257 melanoma
  GI50: 6.41 µM
  TGI: > 100 µM
SK-MEL-2 melanoma
  GI50: 5.61 µM
  TGI: 67.3 µM
HCT-15 colon
  GI50: 0.836 µM
  TGI: > 100 µM
HOP-62 NSCLC
  GI50: 2.89 µM
  TGI: > 100 µM
ACHN renal
  GI50: 4.54 µM
  TGI: > 100 µM
SNB-19 CNS
  GI50: 4.41 µM
  TGI: > 100 µM
MCF7 breast
  GI50: 0.62 µM
  TGI: > 100 µM
